We go through 13 molecules from patent US6472348B1, “Pyridone derivatives and herbicides” (Kumiai Chemical Industry Co., Ltd., priority 1996, dated 2002).

The subject of series [1] is common lambsquarters (Ch). The series is described as follows: Test Example 5: crop plant selectivity by upland field soil treatment (wheat), herbicidal effects. Format: in vivo. More on the design: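 grade of growth control; 5 = at least 90%; 4 = 70 to 90%; 3 = 50 to 70%; 2 = 30 to 50%; 1 = 10 to 30%; 0 = under 10%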. The settings on record: 21st day after application. The essentials:
(§1)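 Seeds sown in pots of sand and covered with soil. Soil treatment applied. Plants cultured in a greenhouse. Effects rated by standard scale after 21 days.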

Series [2] deals with China jute (Ab). The series is described as above. As to conditions: 21st day after application. Format: in vivo. More on the design: scale not given here. Summed up: as §1
Series [3] relates to pale smartweed (Po). The series is described as follows: Test Example 9: crop plant selectivity by upland field foliage treatment (wheat), herbicidal effects. As to conditions: dose 1.6 g ai/10a, 14th day after treatment. Format: in vivo. Further details: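 grade of growth control; 5 = at least 90%; 4 = 70 to 90%; 3 = 50 to 70%; 2 = 30 to 50%; 1 = 10 to 30%; 0 = under 10%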. The essentials: (§2)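 Wheat and broadleaf weeds were sown together in sand-filled pots and grown for 2 weeks in a greenhouse before foliar treatment. Herbicidal effect on weeds and phytotoxicity to wheat were scored visually against set grading standards on day 14 after treatment, with plants kept in the greenhouse.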

Series [4] concerns common lambsquarters (Ch). Described as above. The settings on record: dose 1.6 g ai/10a, 14th day after treatment. More on the design: scale not given here. Format: in vivo. Summed up:
as §2

In series [5] the test system is slender amaranth (Am). The description is as above. More on the design: scale not given here. As to conditions: dose 1.6 g ai/10a, 14th day after treatment. The class given is in vivo. Summed up: as §2
Series [6] relates to China jute (Ab). The description is as above. Format: in vivo. More on the design: scale not given here. As to conditions: dose 1.6 g ai/10a, 14th day after treatment. Summed up:
as §2

For series [7], the system named is pale smartweed (Po). The series is described as follows: Test Example 11: crop plant selectivity by upland field foliage treatment (corn), herbicidal effects. Format: in vivo. Further details: scale not given here. The essentials:
(§3)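 Corn and the weed species were sown together in sand-filled pots and grown in a greenhouse for 2 weeks before foliar treatment. Herbicidal effect was scored on day 14 after treatment against a graded standard scale, with corn phytotoxicity scored alongside.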

The test system of series [8] is common lambsquarters (Ch). The series is described as above. Further details: scale not given here. The class given is in vivo. The essentials: as §3
For series [9], the system named is slender amaranth (Am). The description is as above. Format: in vivo. Further details: scale not given here. The essentials:
as §3

Another series relates to corn (Ze). The series is described as follows: Test Example 11: crop plant selectivity by upland field foliage treatment (corn), phytotoxicity. The essentials:
as §3

Setting [10] is: upland field foliage treatment (corn test), dose 1.6 g ai/10a, 14th day after treatment.
[11] abbreviates: upland field foliage treatment, dose 1.6 g ai/10a, 14th day after treatment.
[12] abbreviates: upland field foliage treatment (corn test), dose 0.1 g ai/10a, 14th day after treatment.

On to `Cn1c(C(F)(F)F)ccc(-c2cc(OCC3CC3)c(Cl)cc2F)c1=O` [1-160], for which the “Herbicidal effects Ch” value in [1] (dose 6.3 g ai/10a) and in [4] was 5 throughout. Also, the “Herbicidal effects Ab” value in the series with China jute (Ab) [2] (dose 6.3 g ai/10a) and in the series on China jute (Ab) [6] was 5 each time. Also, the “Herbicidal effects Po” value in the series on pale smartweed (Po) [3] was 5. In addition, the “Herbicidal effects Am” value with slender amaranth (Am) [5] is on record as 5.
Regarding `C#CC(O)c1cc(-c2ccc(C(F)(F)F)n(C)c2=O)c(F)cc1Cl` (stereo not shown) [Compound 1-202], the “Herbicidal effects Ch” value in series [1] (dose 1.6 g ai/10a) and in series [4] was 5 in each case. Besides, the “Herbicidal effects Ab” value with China jute (Ab) [2] (dose 1.6 g ai/10a) and in the series on China jute (Ab) [6] was 5 throughout. Moreover, the “Herbicidal effects Po” value in the series with pale smartweed (Po) [3] came to 5. The “Herbicidal effects Am” value in the series with slender amaranth (Am) [5] was 5.
For the molecule `C=CCN1C(=O)COc2cc(F)c(-c3ccc(C(F)(F)F)n(C)c3=O)cc21` [Compound 2-7], the “Herbicidal effects Ch” value in series [1] (dose 1.6 g ai/10a) amounted to 4. Besides, in the series with China jute (Ab) [2] (dose 1.6 g ai/10a), the “Herbicidal effects Ab” value turned out to be 5.
As to `Cc1cc2c(-c3ccc(C(F)(F)F)n(C)c3=O)c(F)cc(Cl)c2o1` [Compound 4-1], the “Herbicidal effects Ch” value in [1] (dose 1.6 g ai/10a), in series [1] (dose 6.3 g ai/10a) and in series [4] was 5 each time. Moreover, the “Herbicidal effects Ab” value with China jute (Ab) [2] (dose 1.6 g ai/10a), in the series on China jute (Ab) [2] (dose 6.3 g ai/10a) and in the series on China jute (Ab) [6] was 5 in each case. Further, the “Herbicidal effects Po” value in the series on pale smartweed (Po) [3] worked out at 5. Besides, the “Herbicidal effects Am” value in the series with slender amaranth (Am) [5] stood at 5.
As for `CCc1cc2c(-c3ccc(C(F)(F)F)n(C)c3=O)c(F)cc(Cl)c2o1` [Compound 4-2], the “Herbicidal effects Ch” value in series [1] (dose 1.6 g ai/10a) and in series [4] was 5 throughout. Moreover, the “Herbicidal effects Ab” value with China jute (Ab) [2] (dose 1.6 g ai/10a) and in the series with China jute (Ab) [6] was 5 each time. Also, in the series on pale smartweed (Po) [3], the “Herbicidal effects Po” value was found to be 5. Also, in the series with slender amaranth (Am) [5], the “Herbicidal effects Am” value is recorded as 5.
On to `C#CCN1C(=O)COc2cc(F)c(-c3cn(C)c(C(F)(F)F)cc3=O)cc21` [Compound 7-1], for which the “Herbicidal effects Ab” value in the series on China jute (Ab) [2] (dose 6.3 g ai/10a) and in the series with China jute (Ab) [6] was 5 in each case. In addition, the “Herbicidal effects Po” value is reported as 5 in the series with pale smartweed (Po) [3] and 5 with pale smartweed (Po) [7] (pale smartweed, foliage treatment, dose 1.6 g ai/10a, evaluated on 14th day after treatment, index per Table 47). The “Herbicidal effects Ch” value in [4] is 5; in series [8] (common lambsquarters, foliage treatment, dose 1.6 g ai/10a, evaluated on 14th day after treatment, index per Table 47), 5. Besides, the “Herbicidal effects Am” value in the series with slender amaranth (Am) [5] turned out to be 5; in the series on slender amaranth (Am) [9] (slender amaranth, foliage treatment, dose 1.6 g ai/10a, evaluated on 14th day after treatment, index per Table 47), 5. In the series with corn (Ze) (corn, foliage treatment, dose 1.6 g ai/10a, evaluated on 14th day after treatment, index per Table 47), the “Phytotoxicity Ze” value amounted to 2.
Take `CON=Cc1cc(-c2ccc(C(F)(F)F)n(C)c2=O)c(F)cc1Cl` [Compound No. 1-72, 5-(1-methyl-6-trifluoromethyl-2(1H)-pyridon-3-yl)-2-chloro-4-fluorobenzaldehydeoxime-O-methyl ether]: the “Herbicidal effects Ch” value in [1] (dose 1.6 g ai/10a) and in [8] (setting [10]) was 5 each time. In addition, in the series with China jute (Ab) [2] (dose 1.6 g ai/10a), the “Herbicidal effects Ab” value was 5. The “Herbicidal effects Po” value in the series with pale smartweed (Po) [7] (setting [10]) is recorded as 5. The “Herbicidal effects Am” value in the series on slender amaranth (Am) [9] (setting [10]) was 5. In addition, in the series with corn (Ze) (setting [11]), the “Phytotoxicity Ze” value amounted to 2.
As for `Cn1c(C(F)(F)F)ccc(-c2cc(C#N)c(Cl)cc2F)c1=O` [Compound No. 1-119, 3-(4-chloro-5-cyano-2-fluorophenyl)-1-methyl-6-trifluoromethyl-2(1H)-pyridone], the “Herbicidal effects Po” value in the series on pale smartweed (Po) [3] and in the series on pale smartweed (Po) [7] (setting [10]) was 5 each time. Also, the “Herbicidal effects Ch” value in [4] and in [8] (setting [10]) was 5 each time. Also, the “Herbicidal effects Am” value with slender amaranth (Am) [5] and with slender amaranth (Am) [9] (setting [10]) was 5 each time. In addition, in the series with China jute (Ab) [6], the “Herbicidal effects Ab” value amounted to 4. In addition, the “Phytotoxicity Ze” value with corn (Ze) (setting [11]) came to 2.
As to `C#CCN1C(=O)COc2cc(F)c(-c3ccc(C(F)(F)F)n(C)c3=O)cc21` [Compound No. 2-1, 3-[7-fluoro-2,3-dihydro-4-(2-propynyl)-1,4-benzoxazin-3-on-6-yl]-1-methyl-6-trifluoromethyl-2(1H)-pyridone], the “Herbicidal effects Ch” value in series [1] (dose 1.6 g ai/10a) and in series [8] (setting [12]) was 5 throughout. Further, in the series with China jute (Ab) [2] (dose 1.6 g ai/10a), the “Herbicidal effects Ab” value turned out to be 5. Further, the “Herbicidal effects Po” value in the series with pale smartweed (Po) [7] (setting [12]) turned out to be 5. Also, in the series on slender amaranth (Am) [9] (setting [12]), the “Herbicidal effects Am” value turned out to be 5. Further, the “Phytotoxicity Ze” value in the series on corn (Ze) (upland field foliage treatment, dose 0.1 g ai/10a, 14th day after treatment) is reported as 0.
For `C#CCn1c(=O)sc2cc(F)c(-c3ccc(C(F)(F)F)n(C)c3=O)cc21` [Compound No. 3-1, 3-[6-fluoro-3-(2-propynyl)-benzothiazolin-2-on-5-yl]-1-methyl-6-trifluoromethyl-2(1H)-pyridone], in series [1] (dose 6.3 g ai/10a), the “Herbicidal effects Ch” value is recorded as 5. Besides, the “Herbicidal effects Ab” value with China jute (Ab) [2] (dose 6.3 g ai/10a) is listed as 5.
For the molecule `COCc1cc2c(-c3ccc(C(F)(F)F)n(C)c3=O)c(F)cc(Cl)c2o1` [Compound No. 4-4, 3-(7-chloro-5-fluoro-2-methoxymethylbenzofuran-4-yl)-1-methyl-6-trifluoromethyl-2-(1H)-pyridone], the “Herbicidal effects Ch” value in series [1] (dose 1.6 g ai/10a) and in series [8] (setting [10]) was 5 throughout. Moreover, the “Herbicidal effects Ab” value in the series on China jute (Ab) [2] (dose 1.6 g ai/10a) came to 5. Besides, in the series with pale smartweed (Po) [7] (setting [10]), the “Herbicidal effects Po” value is reported as 5. Further, the “Herbicidal effects Am” value with slender amaranth (Am) [9] (setting [10]) amounted to 5. Besides, the “Phytotoxicity Ze” value with corn (Ze) (setting [11]) is on record as 2.
With `Cn1cc(-c2cc(Oc3ccccc3)c(Cl)cc2F)c(=O)cc1C(F)(F)F` [Compound No. 6-19, 5-(4-chloro-2-fluoro-5-phenoxyphenyl)-1-methyl-2-trifluoromethyl-4(1H)-pyridone], the “Herbicidal effects Ch” value in [1] (dose 1.6 g ai/10a) and in [1] (dose 6.3 g ai/10a) was 5 in each case. For the same molecule, the “Herbicidal effects Ab” value with China jute (Ab) [2] (dose 1.6 g ai/10a) is 3; with China jute (Ab) [2] (dose 6.3 g ai/10a) it was 5.
As to `Cc1cc2c(-c3cn(C)c(C(F)(F)F)cc3=O)c(F)cc(Cl)c2o1` [Compound No. 9-1, 5-(7-chloro-5-fluoro-2-methylbenzofuran-4-yl)-1-methyl-2-trifluoromethyl-4(1H)-pyridone], the “Herbicidal effects Ch” value in series [1] (dose 1.6 g ai/10a) and in [1] (dose 6.3 g ai/10a) was 5 each time. In addition, the “Herbicidal effects Ab” value in the series with China jute (Ab) [2] (dose 1.6 g ai/10a) and in the series with China jute (Ab) [2] (dose 6.3 g ai/10a) was 5 in each case.
